This is an account of results in patent US7432045B2 (priority 2003, dated 2008).

A short description of one series: in vitro. Particulars: African green monkey.
The test system of series [1] is Vero, HeLa, CV-1PD, TM-1, DP-9, CEMx174, NIKS, W12E cells. Description: MTS assay, eight cell lines. Conditions: eight cell lines.
In series [2] the test system is HSV-1 KOS mutant hrR3. The series can be described thus: LacZ+ virus (hrR3) entry assay with pre-adsorbed virus (entry block). In kind it is cell-based. On the procedure:
LacZ^+ virus (hrR3) entry assay: Confluent Vero cell cultures in 96-well microtiter plates were switched to Hepes-buffered serum-free DMEM, cooled on ice to 4° C. for 30 min, and infected with hrR3 for 1 hour at 4° C. in 40 μL of medium. Unattached virus was removed by rinsing with ice-cold medium. Treatments with antiviral peptide SEQ ID NO:1, referred to as EB, or a control peptide which comprised the RRKK tetra-peptide (SEQ ID NO:16) attached to a scrambled version of the membrane transiting peptide RRKKLAALPLVLAAPLAVLA (SEQ ID NO:17) (referred to as EBX), or mock-treatments with peptide-free medium were carried out in serum-free DMEM as indicated. Virus entry was initiated by transferring cultures to 37° C. To inactivate any remaining extracellular virus, cultures were rinsed with PBS and exposed to low pH citrate buffer (40 mM citric acid, 10 mM KCl, 135 mM NaCl, pH 3.0, according to Highlander et al., J. Virol. 61:3356 (1987), for 1 min at 23° C. The citrate was rinsed off with PBS and cultures were maintained in serum-supplemented DMEM until they were fixed with 0.5% gluteraldehyde in 5×PBS for 30 min at 23° C., stained for β-galactosidase activity for 1 hour or overnight at 23° C. with X-gal (Fisher Biotech; BP1615-1) in 1×PBS containing […], 1.3 mM K4Fe(CN)6, and 1.3 mM K3Fe(CN)6, and scored for the presence of blue […] cells.
In these studies, the hrR3 virus was pre-adsorbed to cells for 1 hour at 4° C. before ice cold 25 μM EB or EBX were added in serum-free DMEM. After an additional 1 hour at 4° C., cultures were shifted to 37° C. to initiate virus entry. At 15 min intervals following the temperature shift, any virus remaining outside the cells was inactivated by washing the cultures with low pH citrate buffer. Cultures were then rinsed and returned to peptide-free serum-supplemented DMEM until they were fixed and stained for β-galactosidase 8 hours after the temperature shift.
(§1) Two assays were used to assess the ability of the TAT peptides to inhibit infection of Vero cells with the hrR3 virus. In both assays, the virus was preadsorbed to cells at 4° C. and entry was initiated in the presence of peptide by shifting the cultures to a permissive temperature (30-37° C.). One hour later, the peptide was rinsed off. The entry blocking activity was measured in half of the cultures, in which any extracellular virus remaining after the peptide treatment was inactivated with low pH citrate buffer. The rest of the cultures were exposed to PBS instead of citrate buffer and used to measure virus inactivation. Virus inactivation depended on persistent effects of the peptide lasting for a period of eight hours. At the end of that period, all cultures were fixed and infected cells were detected by staining with X-gal.
(§2) Virus (m.o.i.=0.025) was preadsorbed to Vero cells for 1 h at 4° C. before cultures were exposed to TAT-C (FIG. 15A), bTAT-9X (FIG. 15B), or n50,51TAT-C (FIGS. 15C, 15D) for 1 h at 33 (FIGS. 15A, 15B), 31 (FIG. 15C), or 37° C. (FIG. 15D). […] Inhibition of entry was measured in the citrate-treated cultures, in which any remaining external virus was inactivated immediately following exposure to peptide (●). Persistent virus inactivation lasting, at least in part, for the 8 h period following exposure to peptide, was measured in the PBS-treated cultures (◯). The IC50s measured in these experiments are included in Table 5.

For series [3], the system named is HSV-1 KOS mutant hrR3. The series can be described thus: Inactivation of pre-adsorbed virus (virus inactivation). In kind it is cell-based. Particulars: 33° C.; read-out: Virus Inactivation IC50 (pre-adsorbed virus). As to the method:
as §1, §2

Series [4] relates to HSV-1 KOS mutant hrR3. Particulars: read-out: post-entry effects IC50; peptide added after citrate treatment, 8 h.
The test system of a further series is hrR3. The series can be described thus: Virucidal assay. In kind it is cell-based, HSV-1. On the procedure: […] The treated virus was diluted 200-fold with serum-supplemented DMEM and assayed for infectivity approximately 1 hour later in microtiter wells seeded with Vero cells (3.5×10^4 cells/well) 1 d earlier. Forty or 100 microliter volumes of diluted virus were adsorbed for 1 or 2 h at 37° C. and lacZ^+ cells were scored 8 hours later. In some experiments, aliquots of diluted virus were first dialyzed (Spectra/Por; MWCO 12-14,000) overnight at 4° C. against a 60-fold excess volume of Hepes-buffered serum-supplemented DMEM or forced by syringe through 0.22 μm membranes (Millex-GV; Millipore) before the remaining infectious virus was assayed.

Setting [5] is: 33° C., read-out: Entry Block IC50.

Where two headings read alike, the source gives them in different places. Peptide text beside a SMILES is read from it. * marks the point of attachment. code b = biotin-ε-aminohexanoyl, O=C(CCCC[C@@H]1SC[C@@H]2NC(=O)N[C@@H]21)NCCCCCC(=O)*; Biotin = O=C1N[C@H]2[C@H](CS[C@H]2CCCCC(=O)*)N1; Ahx = NCCCCCC(=O)O

As a reminder, the IC50 is the concentration that gives 50% inhibition. For `CC[C@H](C)[C@H](NC(=O)[C@H](CCCCN)NC(=O)[C@@H](NC(=O)[C@H](CCC(N)=O)NC(=O)[C@H](CCCNC(=N)N)NC(=O)CCCCCNC(=O)CCCC[C@@H]1SC[C@@H]2NC(=O)N[C@@H]21)[C@@H](C)CC)C(=O)N[C@@H](Cc1ccccc1)C(=O)N[C@@H](Cc1ccccc1)C(=O)N1CCC[C@H]1C(=O)N[C@@H](CC(N)=O)C(=O)N[C@@H](CCCNC(=N)N)C(=O)N[C@@H](CCCNC(=N)N)C(=O)N[C@@H](CCSC)C(=O)N[C@@H](CCCCN)C(=O)N[C@@H](Cc1ccccc1)C(=O)N[C@@H](CCCCN)C(=O)N[C@@H](CCCCN)C(N)=O` [bHOMFF, b - RQIKI F FPNRRMK F KK-amide] ({Biotin-Ahx}-RQIKIFFPNRRMKFKK-NH2), the IC50 in the series “in vitro” was more than 100 µM. Also, the “cytotoxicity to cells (MTS), overall” value in series [1] is recorded as “generally not cytotoxic”.

For the compound `CC(C)C[C@H](NC(=O)[C@@H](NC(=O)[C@H](C)NC(=O)[C@H](CC(C)C)NC(=O)[C@@H]1CCCN1C(=O)[C@H](C)NC(=O)[C@H](C)NC(=O)[C@H](CC(C)C)NC(=O)[C@@H](NC(=O)[C@H](CC(C)C)NC(=O)[C@@H]1CCCN1C(=O)[C@H](CC(C)C)NC(=O)[C@H](C)NC(=O)[C@H](C)NC(=O)[C@H](CC(C)C)NC(=O)[C@@H]1CCCN1C(=O)[C@H](CCCNC(=N)N)NC(=O)[C@H](CCCNC(=N)N)NC(=O)[C@H](CCCNC(=N)N)NC(=O)[C@H](CCC(N)=O)NC(=O)[C@H](CCCNC(=N)N)NC(=O)[C@H](CCCNC(=N)N)NC(=O)[C@H](CCCCN)NC(=O)[C@H](CCCCN)NC(=O)[C@H](CCCNC(=N)N)NC(=O)CNC(=O)[C@H](Cc1ccc(O)cc1)NC(=O)CCCCCNC(=O)CCCC[C@@H]1SC[C@@H]2NC(=O)N[C@@H]21)C(C)C)C(C)C)C(=O)N[C@@H](C)C(=O)O` [bTAT-17] ({Biotin-Ahx}-YGRKKRRQRRRPLAALPLVLAAPLAVLA-OH), the IC50 with HSV-1 KOS mutant hrR3 [2] (setting [5]) is 2.4 µM; with HSV-1 KOS mutant hrR3 [3], 6.6 µM; in “in vitro”, approximately 200 µM.

For the compound `N=C(N)NCCC[C@H](NC(=O)CNC(=O)CCCCCNC(=O)CCCC[C@@H]1SC[C@@H]2NC(=O)N[C@@H]21)C(=O)N[C@@H](CCCCN)C(=O)N[C@@H](CCCCN)C(=O)N[C@@H](CCCNC(=N)N)C(=O)N[C@@H](CCCNC(=N)N)C(=O)N[C@@H](CCC(N)=O)C(=O)N[C@@H](CCCNC(=N)N)C(=O)N[C@@H](CCCNC(=N)N)C(=O)N[C@@H](CCCNC(=N)N)C(=O)N[C@@H](CS)C(N)=O` [bTAT-C, b-GRKKRRQRRRC-amide], the results for the IC50 in the series on HSV-1 KOS mutant hrR3 [2] (setting [5]), in the series with HSV-1 KOS mutant hrR3 [3] and in the series with HSV-1 KOS mutant hrR3 [4] were 5.8 µM, 27 µM and 175 µM, respectively.

In the case of `CC(C)C[C@H](NC(=O)[C@@H](NC(=O)[C@H](C)NC(=O)[C@H](CC(C)C)NC(=O)[C@@H]1CCCN1C(=O)[C@H](C)NC(=O)[C@H](C)NC(=O)[C@H](CC(C)C)NC(=O)[C@@H](NC(=O)[C@H](CC(C)C)NC(=O)[C@@H]1CCCN1C(=O)[C@H](CC(C)C)NC(=O)[C@H](C)NC(=O)[C@H](C)NC(=O)[C@H](CC(C)C)NC(=O)[C@@H]1CCCN1C(=O)[C@H](CCCNC(=N)N)NC(=O)[C@H](CCCNC(=N)N)NC(=O)[C@H](CCCNC(=N)N)NC(=O)[C@H](CCC(N)=O)NC(=O)[C@H](CCCNC(=N)N)NC(=O)[C@H](CCCNC(=N)N)NC(=O)[C@H](CCCCN)NC(=O)[C@H](CCCCN)NC(=O)[C@H](CCCNC(=N)N)NC(=O)CN)C(C)C)C(C)C)C(=O)N[C@@H](C)C(=O)O` [TAT-17] (H-GRKKRRQRRRPLAALPLVLAAPLAVLA-OH), the IC50 with HSV-1 KOS mutant hrR3 [2] (setting [5]) is 2.4 µM; with HSV-1 KOS mutant hrR3 [3], 8.3 µM; in “in vitro”, approximately 200 µM.

Take `CC(C)C[C@H](NC(=O)CCCCCNC(=O)CCCC[C@@H]1SC[C@@H]2NC(=O)N[C@@H]21)C(=O)N[C@@H](C)C(=O)N[C@H](C(=O)N[C@@H](CC(C)C)C(=O)N[C@@H](C)C(=O)N1CCC[C@H]1C(=O)NCC(=O)N[C@@H](CCCNC(=N)N)C(=O)N[C@@H](CCCCN)C(=O)N[C@@H](CCCCN)C(=O)N[C@@H](CCCNC(=N)N)C(=O)N[C@@H](CCCNC(=N)N)C(=O)N[C@@H](CCC(N)=O)C(=O)N[C@@H](CCCNC(=N)N)C(=O)N[C@@H](CCCNC(=N)N)C(=O)N[C@@H](CCCNC(=N)N)C(=O)N[C@@H](CS)C(N)=O)C(C)C` [b6TAT-C, b-LAVLAPGRKKRRQRRRC-amide] ({Biotin-Ahx}-LAVLAPGRKKRRQRRRC-NH2): the results for the IC50 in the series with HSV-1 KOS mutant hrR3 [2] (setting [5]), in the series on HSV-1 KOS mutant hrR3 [3] and with HSV-1 KOS mutant hrR3 [4] were 5.3 µM, 25 µM and 190 µM, respectively.

For the compound `CC(C)C[C@H](NC(=O)CCCCCNC(=O)CCCC[C@@H]1SC[C@@H]2NC(=O)N[C@@H]21)C(=O)N[C@@H](C)C(=O)N[C@@H](C)C(=O)N[C@@H](CC(C)C)C(=O)N1CCC[C@H]1C(=O)N[C@@H](CC(C)C)C(=O)N[C@H](C(=O)N[C@@H](CC(C)C)C(=O)N[C@@H](C)C(=O)N[C@@H](C)C(=O)N1CCC[C@H]1C(=O)N[C@@H](CC(C)C)C(=O)N[C@@H](C)C(=O)N[C@H](C(=O)N[C@@H](CC(C)C)C(=O)N[C@@H](C)C(=O)N1CCC[C@H]1C(=O)NCC(=O)N[C@@H](CCCNC(=N)N)C(=O)N[C@@H](CCCCN)C(=O)N[C@@H](CCCCN)C(=O)N[C@@H](CCCNC(=N)N)C(=O)N[C@@H](CCCNC(=N)N)C(=O)N[C@@H](CCC(N)=O)C(=O)N[C@@H](CCCNC(=N)N)C(=O)N[C@@H](CCCNC(=N)N)C(=O)N[C@@H](CCCNC(=N)N)C(=O)N[C@@H](CS)C(N)=O)C(C)C)C(C)C` [b17TAT-C] ({Biotin-Ahx}-LAALPLVLAAPLAVLAPGRKKRRQRRRC-NH2), the half-inhibitory concentration (IC50) in the series with HSV-1 KOS mutant hrR3 [2] (setting [5]) is 5.4 µM; with HSV-1 KOS mutant hrR3 [3], 9.4 µM; in “in vitro”, approximately 200 µM.

For “b - KLALKLALKALKAALKLA-amide ({code b}-KLALKLALKALKAALKLA-NH2; SMILES CC(C)C[C@H](NC(=O)[C@H](C)NC(=O)[C@H](CCCCN)NC(=O)[C@H](CC(C)C)NC(=O)[C@H](C)NC(=O)[C@H](CC(C)C)NC(=O)[C@H](CCCCN)NC(=O)[C@H](CC(C)C)NC(=O)[C@H](C)NC(=O)[C@H](CC(C)C)NC(=O)[C@H](CCCCN)NC(=O)CCCCCNC(=O)CCCC[C@@H]1SC[C@@H]2NC(=O)N[C@@H]21)C(=O)N[C@@H](CCCCN)C(=O)N[C@@H](C)C(=O)N[C@@H](C)C(=O)N[C@@H](CC(C)C)C(=O)N[C@@H](CCCCN)C(=O)N[C@@H](CC(C)C)C(=O)N[C@@H](C)C(N)=O) [bKLAd11,12]”, the IC50 turned out to be 300 µM in the series on hrR3 (4° C., read-out: Virucidal Activity 4° C. IC50); 61 µM with hrR3 (37° C., read-out: Virucidal Activity 37° C. IC50); 23 µM in the series with HSV-1 KOS mutant hrR3 [2] (read-out: Entry Blocking Activity IC50).
